Assay [1] addresses T1, Human melanin-concentrating hormone (MCH1) (Homo sapiens, UniProt Q99705).
T1 construct: purchased Perkin Elmer Biosignal
Nature of the assay: Radioligand binding, human melanin-concentrating hormone MCH1 membranes, FlashPlate, [125I]-S36057. As to conditions: compound at 10 μM. In a few lines:
(§1)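 Cloned human receptor membranes were coated onto FlashPlate wells and incubated with radioligand and compound (added from a 0.5 mM DMSO daughter plate) for 1 hour at room temperature in the dark. Scintillation counting gave percent inhibition, with DMSO defining total and reference ligand defining non-specific binding.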

Another assay deals with T2, Human Melanocortin (MC3) (Homo sapiens, UniProt P41968).
T2 construct: purchased Perkin Elmer Biosignal
T2 sequence (P41968 whole entry): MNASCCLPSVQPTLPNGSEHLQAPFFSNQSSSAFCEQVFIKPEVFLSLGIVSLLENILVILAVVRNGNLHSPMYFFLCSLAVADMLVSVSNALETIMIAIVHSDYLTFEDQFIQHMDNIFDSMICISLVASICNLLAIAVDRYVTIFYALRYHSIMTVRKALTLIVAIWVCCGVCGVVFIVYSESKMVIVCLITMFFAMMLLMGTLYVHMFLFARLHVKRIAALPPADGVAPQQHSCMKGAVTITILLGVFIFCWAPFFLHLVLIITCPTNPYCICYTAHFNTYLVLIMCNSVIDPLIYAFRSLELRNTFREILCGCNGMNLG
Nature of the assay: Radioligand binding, human melanocortin MC3 membranes, FlashPlate, [125I]-NDP-αMSH. As to conditions: compound at 10 μM, [125I]-NDP-αMSH. In a few lines:
as §1

Another assay has as its target T3, Human κ-Opioid (KOP) (Homo sapiens, UniProt P41145).
T3 construct: purchased Perkin Elmer Biosignal
Nature of the assay: Radioligand binding, human κ-opioid (KOP) membranes, filtration, [3H]-Diprenorphine. As to conditions: compound at 10 μM, [3H]-Diprenorphine. In a few lines:
(§2)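 Percent inhibition of radioligand binding measured on recombinant human membranes: NK1 with [125I]-Substance P, KOP with [3H]-Diprenorphine. Incubation 1 h at room temperature, then harvest onto 0.3% PEI-soaked filters, cold Tris-HCl pH 7.4 washes and scintillation counting; non-specific binding from reference ligand wells.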

The target in a further assay is T4, Human Melanocortin (MC4) (Homo sapiens, UniProt P32245).
T4 construct: purchased Perkin Elmer Biosignal
T4 sequence (P32245 whole entry): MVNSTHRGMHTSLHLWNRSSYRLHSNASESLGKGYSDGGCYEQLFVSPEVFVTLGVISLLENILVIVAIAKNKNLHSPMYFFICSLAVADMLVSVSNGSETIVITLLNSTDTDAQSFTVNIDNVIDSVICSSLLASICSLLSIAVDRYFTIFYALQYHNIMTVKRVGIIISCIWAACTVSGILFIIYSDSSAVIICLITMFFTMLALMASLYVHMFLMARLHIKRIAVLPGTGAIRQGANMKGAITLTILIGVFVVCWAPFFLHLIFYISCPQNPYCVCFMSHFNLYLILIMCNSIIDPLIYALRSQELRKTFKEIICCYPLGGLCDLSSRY
Put plainly: Radioligand binding, human melanocortin MC4 membranes, FlashPlate, [125I]-NDP-αMSH. Particulars: compound at 10 μM, [125I]-NDP-αMSH. The procedure, abridged:
as §1

For the next assay, the target named is T5, Human melanocortin (MC5) (Homo sapiens, UniProt P33032).
T5 construct: purchased Perkin Elmer Biosignal
T5 sequence (P33032 whole entry): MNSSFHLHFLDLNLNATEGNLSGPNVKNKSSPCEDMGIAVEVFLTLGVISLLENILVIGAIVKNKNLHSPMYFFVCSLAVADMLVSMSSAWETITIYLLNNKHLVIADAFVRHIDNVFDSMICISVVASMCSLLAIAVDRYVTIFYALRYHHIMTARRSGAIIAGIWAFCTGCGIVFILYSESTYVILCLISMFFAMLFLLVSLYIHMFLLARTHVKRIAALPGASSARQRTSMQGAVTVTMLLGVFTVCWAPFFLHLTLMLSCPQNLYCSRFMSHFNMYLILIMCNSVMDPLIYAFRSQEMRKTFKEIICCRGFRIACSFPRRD
Nature of the assay: Radioligand binding, human melanocortin MC5 membranes, FlashPlate, [125I]-NDP-αMSH. Particulars: compound at 10 μM, [125I]-NDP-αMSH. The procedure, abridged: as §1

A further assay concerns the target T6, Human μ-opioid (MOP) (Homo sapiens, UniProt P35372).
T6 construct: purchased Perkin Elmer Biosignal
Nature of the assay: Radioligand binding, human μ-opioid (MOP) membranes, FlashPlate, [3H]-Naloxone. As to conditions: compound at 10 μM, [3H]-Naloxone. In a few lines:
as §1

The target in another assay is T7, Human neurokinin (NK1) (Homo sapiens, UniProt P25103).
T7 construct: purchased Perkin Elmer Biosignal
T7 sequence (P25103 whole entry): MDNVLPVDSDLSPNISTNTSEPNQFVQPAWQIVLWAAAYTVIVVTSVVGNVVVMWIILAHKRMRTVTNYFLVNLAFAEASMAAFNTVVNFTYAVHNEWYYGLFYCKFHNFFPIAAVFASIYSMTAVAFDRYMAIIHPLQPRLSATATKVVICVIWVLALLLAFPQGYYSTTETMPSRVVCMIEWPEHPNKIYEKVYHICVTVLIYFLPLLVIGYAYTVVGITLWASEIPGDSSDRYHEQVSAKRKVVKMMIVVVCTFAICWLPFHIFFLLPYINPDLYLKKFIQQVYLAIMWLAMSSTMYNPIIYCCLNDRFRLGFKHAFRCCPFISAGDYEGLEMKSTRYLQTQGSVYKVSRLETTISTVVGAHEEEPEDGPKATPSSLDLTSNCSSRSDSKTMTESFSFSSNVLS
Nature of the assay: Radioligand binding, human neurokinin NK1 membranes, filtration, [125I]-Substance P. As to conditions: compound at 10 μM, [125I]-Substance P. In a few lines: as §2

Another assay addresses T8, Mouse urotensin (mUR2) (Mus musculus, UniProt Q8VIH9).
T8 construct: purchased Perkin Elmer Biosignal
T8 sequence (Q8VIH9 1-385): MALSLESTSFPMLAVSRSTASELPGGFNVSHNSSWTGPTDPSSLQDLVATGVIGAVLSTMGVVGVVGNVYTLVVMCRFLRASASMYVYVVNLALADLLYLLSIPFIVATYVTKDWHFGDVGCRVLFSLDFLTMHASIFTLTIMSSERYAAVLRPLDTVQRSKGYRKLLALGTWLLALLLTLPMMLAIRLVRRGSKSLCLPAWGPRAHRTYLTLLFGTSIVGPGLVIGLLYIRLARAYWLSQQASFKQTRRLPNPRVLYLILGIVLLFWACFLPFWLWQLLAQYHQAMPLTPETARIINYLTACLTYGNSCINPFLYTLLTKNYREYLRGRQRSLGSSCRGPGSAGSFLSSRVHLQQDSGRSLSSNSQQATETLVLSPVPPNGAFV
Put plainly: Radioligand binding, mouse urotensin mUR2 membranes, FlashPlate, [125I]-Urotensin II. As to conditions: compound at 10 μM, [125I]-Urotensin II. The procedure, abridged: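 Cloned mouse urotensin (mUR2) receptor membranes from Perkin Elmer Biosignal were immobilized in FlashPlate microplates using a proprietary coating. Each well got 19.5 μl buffer, then 0.5 μl of DMSO, reference ligand, or compound. Adding 5 μl of [125I]-Urotensin II, diluted to 5× final concentration in binding buffer, started binding. Plates were sealed with TopSeal-A and incubated 1 hour at room temperature in the dark. Wells were counted for 30 seconds each on a TopCount after a 60-second delay, and percentage inhibition was calculated.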

The target of the next assay is T9, Human opioid (ORL1) (Homo sapiens, UniProt P41146).
T9 construct: purchased Perkin Elmer Biosignal
T9 sequence (P41146 whole entry): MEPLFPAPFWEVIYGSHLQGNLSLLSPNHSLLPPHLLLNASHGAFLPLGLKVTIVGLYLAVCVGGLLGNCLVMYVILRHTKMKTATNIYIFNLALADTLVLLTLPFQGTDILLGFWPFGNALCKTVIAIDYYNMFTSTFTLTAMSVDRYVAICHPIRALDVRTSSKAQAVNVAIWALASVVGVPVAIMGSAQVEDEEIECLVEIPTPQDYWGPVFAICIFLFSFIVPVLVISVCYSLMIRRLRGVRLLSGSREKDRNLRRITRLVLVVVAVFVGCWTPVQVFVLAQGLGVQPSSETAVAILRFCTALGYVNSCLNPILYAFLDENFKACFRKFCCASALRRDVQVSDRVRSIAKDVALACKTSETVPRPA
Put plainly: Radioligand binding, human opioid ORL1 membranes, FlashPlate, [125I]-Nociceptin. As to conditions: compound at 10 μM, [125I]-Nociceptin. The procedure, abridged: as §1

The target in assay [2] is T10, Human neuropeptide Y (NPY-Y1) (Homo sapiens, UniProt P25929).
T10 construct: purchased Perkin Elmer Biosignal
T10 sequence (P25929 1-384): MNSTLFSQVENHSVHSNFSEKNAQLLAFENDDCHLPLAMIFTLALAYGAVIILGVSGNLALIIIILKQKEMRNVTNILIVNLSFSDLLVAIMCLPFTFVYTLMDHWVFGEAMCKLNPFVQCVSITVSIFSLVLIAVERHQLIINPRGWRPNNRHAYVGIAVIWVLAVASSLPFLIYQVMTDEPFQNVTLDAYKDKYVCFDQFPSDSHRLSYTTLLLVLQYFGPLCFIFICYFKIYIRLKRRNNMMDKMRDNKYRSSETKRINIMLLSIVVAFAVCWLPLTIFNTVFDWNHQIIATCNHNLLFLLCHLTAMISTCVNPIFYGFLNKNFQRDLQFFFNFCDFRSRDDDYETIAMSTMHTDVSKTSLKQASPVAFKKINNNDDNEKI
Put plainly: Radioligand binding, human neuropeptide Y NPY-Y1 membranes, FlashPlate, [125I]-PYY. Particulars: compound at 10 μM, [125I]-PYY. In a few lines:
as §1

The target in the next assay is T11, Human δ-opioid (DOP) (Homo sapiens, UniProt P41143).
T11 construct: purchased Perkin Elmer Biosignal
T11 sequence (P41143 whole entry): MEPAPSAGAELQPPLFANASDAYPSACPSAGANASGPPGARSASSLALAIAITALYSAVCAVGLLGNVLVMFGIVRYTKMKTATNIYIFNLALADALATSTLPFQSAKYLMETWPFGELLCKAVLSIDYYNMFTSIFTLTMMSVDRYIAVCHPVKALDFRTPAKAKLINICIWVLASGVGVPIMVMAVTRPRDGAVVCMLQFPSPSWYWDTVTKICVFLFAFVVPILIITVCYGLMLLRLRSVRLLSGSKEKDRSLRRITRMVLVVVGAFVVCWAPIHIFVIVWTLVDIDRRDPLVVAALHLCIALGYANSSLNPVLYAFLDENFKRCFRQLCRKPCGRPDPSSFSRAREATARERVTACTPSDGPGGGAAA
Put plainly: Radioligand binding, human δ-opioid (DOP) membranes, FlashPlate, [3H]-Bremazocine. Particulars: compound at 10 μM, [3H]-Bremazocine. The procedure, abridged:
as §1

T1 sequence (Q99705 whole entry): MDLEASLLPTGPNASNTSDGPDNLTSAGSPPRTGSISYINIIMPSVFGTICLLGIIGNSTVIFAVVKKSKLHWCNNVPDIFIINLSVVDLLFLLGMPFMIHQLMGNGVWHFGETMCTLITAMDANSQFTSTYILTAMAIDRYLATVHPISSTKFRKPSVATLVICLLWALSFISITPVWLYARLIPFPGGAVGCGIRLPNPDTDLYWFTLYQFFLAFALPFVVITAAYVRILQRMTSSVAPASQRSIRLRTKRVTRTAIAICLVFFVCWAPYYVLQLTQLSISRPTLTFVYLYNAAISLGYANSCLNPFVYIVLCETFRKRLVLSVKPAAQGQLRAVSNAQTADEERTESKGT
T3 sequence (P41145 whole entry): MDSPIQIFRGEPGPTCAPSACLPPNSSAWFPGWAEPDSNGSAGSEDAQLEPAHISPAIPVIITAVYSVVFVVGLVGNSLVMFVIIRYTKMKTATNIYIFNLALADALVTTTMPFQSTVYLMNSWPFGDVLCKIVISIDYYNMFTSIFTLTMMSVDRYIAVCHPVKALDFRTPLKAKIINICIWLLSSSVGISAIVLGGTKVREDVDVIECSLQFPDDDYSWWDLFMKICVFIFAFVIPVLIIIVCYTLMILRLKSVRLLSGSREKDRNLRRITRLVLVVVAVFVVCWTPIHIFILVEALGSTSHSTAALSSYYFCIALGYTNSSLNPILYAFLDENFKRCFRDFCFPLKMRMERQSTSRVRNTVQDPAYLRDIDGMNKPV
T6 sequence (P35372 whole entry): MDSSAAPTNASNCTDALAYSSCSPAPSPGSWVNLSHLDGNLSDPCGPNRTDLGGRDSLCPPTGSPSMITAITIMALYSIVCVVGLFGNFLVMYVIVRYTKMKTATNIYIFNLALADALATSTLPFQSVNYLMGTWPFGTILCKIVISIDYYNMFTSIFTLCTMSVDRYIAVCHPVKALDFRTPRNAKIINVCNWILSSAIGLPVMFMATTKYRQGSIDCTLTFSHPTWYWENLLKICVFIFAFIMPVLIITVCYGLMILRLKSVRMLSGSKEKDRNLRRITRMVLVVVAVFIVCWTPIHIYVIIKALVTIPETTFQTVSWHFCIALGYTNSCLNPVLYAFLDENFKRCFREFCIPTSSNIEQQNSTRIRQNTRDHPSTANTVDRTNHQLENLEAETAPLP

For `NCCCC(=O)NC1C(OCc2ccc3ccccc3c2)OC(COCc2ccc(Cl)cc2)C(O)C1OCc1ccc(Cl)cc1` (centres unmarked) [compound 392], the “A6: inhibition of radioligand binding” value in assay [1] ([125I]-S36057, human MCH1 membranes, 10 µM) is “− (“−” indicates less than 50% inhibition at 10 μM)”. The “A3: inhibition of radioligand binding” value at Human Melanocortin (MC3) (human MC3 membranes) is “+ (“+” indicates greater than 50% inhibition at 10 μM)”. For the same molecule, the “A2: inhibition of radioligand binding” value on Human κ-Opioid (KOP) (human KOP membranes) is recorded as “− (“−” indicates less than 50% inhibition at 10 μM)”. Also, at Human Melanocortin (MC4) (human MC4 membranes), the “A4: inhibition of radioligand binding” value is “+ (“+” indicates greater than 50% inhibition at 10 μM)”. The “A5: inhibition of radioligand binding” value at Human melanocortin (MC5) (human MC5 membranes) was “+ (“+” indicates greater than 50% inhibition at 10 μM)”. Besides, on Human μ-opioid (MOP) (human MOP membranes, 10 µM), the “A7: inhibition of radioligand binding” value was “− (“−” indicates less than 50% inhibition at 10 μM)”. The “A8: inhibition of radioligand binding” value on Human neurokinin (NK1) (human NK1 membranes) was “+ (“+” indicates greater than 50% inhibition at 10 μM)”. Further, the “A11: inhibition of radioligand binding” value at Mouse urotensin (mUR2) (mouse mUR2 membranes) is given as “− (“−” indicates less than 50% inhibition at 10 μM)”. In addition, the “A10: inhibition of radioligand binding” value on Human opioid (ORL1) (human ORL1 membranes, 10 µM) is recorded as “− (“−” indicates less than 50% inhibition at 10 μM)”. Also, the “A9: inhibition of radioligand binding” value in assay [2] (human NPY-Y1 membranes) is on record as “− (“−” indicates less than 50% inhibition at 10 μM)”. In addition, on Human δ-opioid (DOP) (human DOP membranes), the “A1: inhibition of radioligand binding” value is recorded as “− (“−” indicates less than 50% inhibition at 10 μM)”.
With `CSC1O[C@H](COCc2ccc3ccccc3c2)[C@@H](O)[C@@H](OCc2ccc(-c3ccccc3)cc2)[C@H]1NC(=O)CN` (some centres unmarked) [compound 295], in assay [1] ([125I]-S36057), the “A6: inhibition of radioligand binding, human melanin-concentrating hormone (MCH1)” value is given as “− (“−” indicates less than 50% inhibition at 10 μM)”. Besides, the “A3: inhibition of radioligand binding, human melanocortin (MC3)” value at Human Melanocortin (MC3) was “− (“−” indicates less than 50% inhibition at 10 μM)”. Besides, the “A2: inhibition of radioligand binding, human κ-opioid (KOP)” value at Human κ-Opioid (KOP) is recorded as “− (“−” indicates less than 50% inhibition at 10 μM)”. The “A4: inhibition of radioligand binding, human melanocortin (MC4)” value at Human Melanocortin (MC4) was “− (“−” indicates less than 50% inhibition at 10 μM)”. The “A5: inhibition of radioligand binding, human melanocortin (MC5)” value on Human melanocortin (MC5) was “− (“−” indicates less than 50% inhibition at 10 μM)”. In addition, on Human μ-opioid (MOP), the “A7: inhibition of radioligand binding, human μ-opioid (MOP)” value is listed as “− (“−” indicates less than 50% inhibition at 10 μM)”. In addition, the “A8: inhibition of radioligand binding, human neurokinin (NK1)” value at Human neurokinin (NK1) was “+ (“+” indicates greater than 50% inhibition at 10 μM)”. The “A11: inhibition of radioligand binding, mouse urotensin (mUR2)” value on Mouse urotensin (mUR2) is “− (“−” indicates less than 50% inhibition at 10 μM)”. Further, at Human opioid (ORL1), the “A10: inhibition of radioligand binding, human opioid (ORL1)” value is reported as “− (“−” indicates less than 50% inhibition at 10 μM)”. For the same molecule, in assay [2], the “A9: inhibition of radioligand binding, human neuropeptide Y (NPY-Y1)” value was “− (“−” indicates less than 50% inhibition at 10 μM)”. Besides, the “A1: inhibition of radioligand binding, human δ-opioid (DOP)” value at Human δ-opioid (DOP) is “− (“−” indicates less than 50% inhibition at 10 μM)”.
For `N=C(N)NCC(=O)NC1C(OCc2ccc(-c3ccccc3)cc2)OC(COCc2ccccc2)C(O)C1OCc1ccc(Cl)cc1` (centres unmarked) [compound 400], the “A6: inhibition of radioligand binding” value in [1] ([125I]-S36057, human MCH1 membranes) was “+ (“+” indicates greater than 50% inhibition at 10 μM)”. In addition, at Human Melanocortin (MC3) (human MC3 membranes), the “A3: inhibition of radioligand binding” value is reported as “+ (“+” indicates greater than 50% inhibition at 10 μM)”. Further, at Human κ-Opioid (KOP) (human KOP membranes), the “A2: inhibition of radioligand binding” value was “− (“−” indicates less than 50% inhibition at 10 μM)”. Also, the “A4: inhibition of radioligand binding” value on Human Melanocortin (MC4) (human MC4 membranes) is recorded as “+ (“+” indicates greater than 50% inhibition at 10 μM)”. For the same molecule, at Human melanocortin (MC5) (human MC5 membranes), the “A5: inhibition of radioligand binding” value was “+ (“+” indicates greater than 50% inhibition at 10 μM)”. In addition, the “A7: inhibition of radioligand binding” value at Human μ-opioid (MOP) (human MOP membranes) is recorded as “− (“−” indicates less than 50% inhibition at 10 μM)”. Further, on Human neurokinin (NK1) (human NK1 membranes), the “A8: inhibition of radioligand binding” value is reported as “+ (“+” indicates greater than 50% inhibition at 10 μM)”. In addition, the “A11: inhibition of radioligand binding” value on Mouse urotensin (mUR2) (mouse mUR2 membranes) was “− (“−” indicates less than 50% inhibition at 10 μM)”. In addition, the “A10: inhibition of radioligand binding” value on Human opioid (ORL1) (human ORL1 membranes) is “+ (“+” indicates greater than 50% inhibition at 10 μM)”. For the same molecule, the “A9: inhibition of radioligand binding” value in assay [2] (human NPY-Y1 membranes) was “− (“−” indicates less than 50% inhibition at 10 μM)”. Also, the “A1: inhibition of radioligand binding” value on Human δ-opioid (DOP) (human DOP membranes) is on record as “− (“−” indicates less than 50% inhibition at 10 μM)”.
In the case of `COCC1OC(OCc2ccc3ccccc3c2)C(NC(=O)CCCNC(=N)N)C(OCc2ccc(Cl)cc2)C1O` (centres unmarked) [compound 240], the “A6: inhibition of radioligand binding” value in [1] ([125I]-S36057, FlashPlate) is “+ (“+” indicates greater than 50% inhibition at 10 μM)”. In addition, on Human Melanocortin (MC3) (FlashPlate), the “A3: inhibition of radioligand binding” value was “+ (“+” indicates greater than 50% inhibition at 10 μM)”. Besides, the “A2: inhibition of radioligand binding” value on Human κ-Opioid (KOP) (filtration) is given as “+ (“+” indicates greater than 50% inhibition at 10 μM)”. For the same molecule, the “A4: inhibition of radioligand binding” value on Human Melanocortin (MC4) (FlashPlate) is on record as “+ (“+” indicates greater than 50% inhibition at 10 μM)”. Further, the “A5: inhibition of radioligand binding” value at Human melanocortin (MC5) (FlashPlate) is reported as “+ (“+” indicates greater than 50% inhibition at 10 μM)”. In addition, the “A7: inhibition of radioligand binding” value at Human μ-opioid (MOP) (FlashPlate) is “+ (“+” indicates greater than 50% inhibition at 10 μM)”. Also, at Human neurokinin (NK1) (filtration), the “A8: inhibition of radioligand binding” value is on record as “+ (“+” indicates greater than 50% inhibition at 10 μM)”. Besides, the “A11: inhibition of radioligand binding” value on Mouse urotensin (mUR2) (FlashPlate) is given as “− (“−” indicates less than 50% inhibition at 10 μM)”. Also, the “A10: inhibition of radioligand binding” value at Human opioid (ORL1) (FlashPlate) is on record as “+ (“+” indicates greater than 50% inhibition at 10 μM)”. The “A9: inhibition of radioligand binding” value in assay [2] (FlashPlate) was “− (“−” indicates less than 50% inhibition at 10 μM)”. Moreover, the “A1: inhibition of radioligand binding” value on Human δ-opioid (DOP) (FlashPlate) is on record as “− (“−” indicates less than 50% inhibition at 10 μM)”.
